In PubChem BioAssay AID651630 (Sanford-Burnham Center for Chemical Genomics, 2012) one finds IC50 cytotoxicity (DAPI nuclear signal decrease) and IC50 data, which are given here for eleven compounds.

The test system of one test is DAPI. Description: TAG lipid buildup inhibition with viability readout – cell-based, panel, Nile Red and DAPI fluorescence, H9c2, dose response (AID 651630).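 Further: cells exposed to compound overnight before fixation and staining.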 The settings on record: H9c2 cells, DAPI nuclear fluorescence (cytotoxicity counter-readout), oleic acid.
The next test deals with TAG. The description is as above. The conditions noted are these: H9c2 cells, Nile Red TAG fluorescence, oleic acid.

Calls of active or inactive are those of the source.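 How the source made its calls: active means lipid-stain IC50 at or below a set limit, with nuclear-stain toxicity IC50 at least five times higher; inactive means the rest.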 Where only a bound is given, the exact number is not on record here.

As to `O=C(c1ccoc1)N1CCN(c2cc(-c3cccnc3)nc3cc(-c4cccc(Cl)c4)nn23)CC1`, the IC50 cytotoxicity (DAPI nuclear signal decrease) with DAPI (run 1) and in the test with DAPI (run 2) was greater than 25 µM each time. Further, the IC50 was 4.93 µM in the test on TAG (mean of runs), 3.16 µM in the test with TAG (run 1) and 6.71 µM with TAG (run 2).
Consider `CCN1CCN(Cc2ccc(NC(=O)c3ccc(C)c(NC(=O)C(=O)c4c[nH]c5ccccc45)c3)cc2C(F)(F)F)CC1`, for which the IC50 cytotoxicity (DAPI nuclear signal decrease) with DAPI (mean of runs) was 23.8 µM (inactive); in the test on DAPI (run 1) it was 24.4 µM; in the test on DAPI (run 2) it was 23.1 µM. For the same compound, the values for the IC50 in the test with TAG (mean of runs), with TAG (run 1) and in the test on TAG (run 2) were 4.98 µM, 6.17 µM and 3.8 µM, respectively.
Turning to `Brc1ccc(-c2csc(NNC3=NCCCCC3)n2)cc1`, the IC50 cytotoxicity (DAPI nuclear signal decrease) with DAPI (run 1) is 21.6 µM; in the test on DAPI (run 2) it was greater than 25 µM. Besides, the IC50 is 1.85 µM in the test with TAG (mean of runs), 1.55 µM in the test on TAG (run 1) and 2.15 µM in the test with TAG (run 2).
Take `COc1ccc(CN(C)C[C@@H]2OCCCC[C@H](C)Oc3ccc(NC(=O)Nc4ccc(F)cc4)cc3C(=O)N([C@H](C)CO)C[C@H]2C)cc1`: the figures for the IC50 cytotoxicity (DAPI nuclear signal decrease) in the test with DAPI (mean of runs), in the test on DAPI (run 1) and in the test on DAPI (run 2) were > 25 µM (inactive), greater than 25 µM and greater than 25 µM, respectively. The results for the IC50 in the test on TAG (run 1) and with TAG (run 2) were 21.8 µM and greater than 25 µM, respectively.
With `COCCCNC(=O)C(=O)Nc1ccc2c(c1)N(S(=O)(=O)c1cccs1)CCC2`, the IC50 cytotoxicity (DAPI nuclear signal decrease) was > 25 µM (inactive) with DAPI (mean of runs), greater than 25 µM with DAPI (run 1) and greater than 25 µM in the test on DAPI (run 2). Moreover, the concentration for half-maximal inhibition (IC50) is 7.64 µM with TAG (run 1) and greater than 25 µM with TAG (run 2).
In the case of `COC(=O)C1=C(C)N(Cc2ccccc2)C(=NCC(C)C)N[C@H]1c1cccc(F)c1`, the IC50 cytotoxicity (DAPI nuclear signal decrease) is > 25 µM (inactive) in the test on DAPI (mean of runs), greater than 25 µM in the test on DAPI (run 1) and greater than 25 µM with DAPI (run 2). Also, the figures for the IC50 in the test with TAG (mean of runs), in the test on TAG (run 1) and in the test with TAG (run 2) were > 25 µM (inactive), greater than 25 µM and greater than 25 µM, respectively.
As for `O=C(CSc1nc(Nc2ccccc2)nc(N2CCOCC2)n1)N1CCCC1`, the IC50 cytotoxicity (DAPI nuclear signal decrease) was 22.1 µM with DAPI (run 1) and greater than 25 µM with DAPI (run 2). Further, the figures for the IC50 in the test with TAG (mean of runs), with TAG (run 1) and in the test on TAG (run 2) were 12.2 µM, 11.7 µM and 12.7 µM, respectively.
Consider `C=CCC[C@@H](Cc1ccc(F)cc1)C(=O)OC[C@@H](Cc1c[nH]c2ccccc12)NC(=O)[C@H](CC=C)CC(=O)N(CCO)Cc1ccccc1`, for which the values for the IC50 cytotoxicity (DAPI nuclear signal decrease) in the test with DAPI (mean of runs), with DAPI (run 1) and in the test with DAPI (run 2) were > 25 µM (inactive), greater than 25 µM and greater than 25 µM, respectively. In addition, the 50% inhibitory concentration (IC50) in the test with TAG (mean of runs) was 6.99 µM; in the test on TAG (run 1), 6.29 µM; with TAG (run 2), 7.69 µM.
For `CCOc1ccc(CCNC(=O)CN(C)S(=O)(=O)c2cccc3nsnc23)cc1OCC`, the IC50 cytotoxicity (DAPI nuclear signal decrease) in the test on DAPI (mean of runs) is > 25 µM (inactive); in the test on DAPI (run 1), greater than 25 µM; in the test with DAPI (run 2), greater than 25 µM. For the same compound, the IC50 in the test on TAG (mean of runs) is 17.5 µM (inactive); in the test on TAG (run 1), 14.2 µM; in the test on TAG (run 2) it was 20.8 µM.
Consider `COc1ccc2nc(NC(=O)c3cccc(OCc4c(C)noc4C)c3)sc2c1`, for which the values for the IC50 cytotoxicity (DAPI nuclear signal decrease) in the test on DAPI (mean of runs), in the test on DAPI (run 1) and in the test on DAPI (run 2) were > 25 µM (inactive), greater than 25 µM and greater than 25 µM, respectively. The values for the IC50 with TAG (mean of runs), with TAG (run 1) and with TAG (run 2) were 17.6 µM (inactive), 17.4 µM and 17.8 µM, respectively.
Turning to `CCC1(O)CC2CN(CCc3c([nH]c4ccccc34)C(C(=O)OC)(c3cc4c(cc3OC)N(C=O)C3C(O)(C(=O)OC)C(OC(C)=O)C5(CC)C=CCN6CCC43C65)C2)C1` (stereo not given), the IC50 cytotoxicity (DAPI nuclear signal decrease) in the test on DAPI (mean of runs) is > 25 µM (inactive); with DAPI (run 1) it was greater than 25 µM; with DAPI (run 2) it was greater than 25 µM. Further, the IC50 with TAG (run 1) was less than 0.78 µM; in the test on TAG (run 2) it was greater than 25 µM.

Usually IC50 stands for the concentration needed to halve the response being measured.
